Data from publication PMC9405846 (2022).

What was measured:
[1] = tested on: Aptamer 1 (Apt1) (RNA, aptamer) CCAUGUAAGCGCGGUACUCUUACGUGA; assay: electrochemical impedance (EIS); conditions: 0.1 M KCl, 3 mM MgCl2; 100 µM; response about 15 times lower than with NH4+
[2] = tested on: Aptamer 2 (Apt2) (RNA, aptamer) UCGCGUCUAGCCCAUUGAUAGGCCCGA; assay: electrochemical impedance (EIS); conditions: 0.1 M KCl, 3 mM MgCl2; 100 µM; response about 15 times lower than with NH4+
[3] = tested on: Aptamer 3 (Apt3) (RNA, aptamer) UCCACGUGGUGCCAUACUCCGGCGUGG; assay: electrochemical impedance (EIS); conditions: 0.1 M KCl, 3 mM MgCl2; 100 µM; response about 15 times lower than with NH4+
[4] = tested on: Control (random sequence) (RNA, other) CUGAAGGCAGUCCGGUGCCCGGCCGGG; assay: electrochemical impedance (EIS); conditions: 0.1 M KCl, 3 mM MgCl2; PBS, pH about 7, 15 min incubation; tested up to 500 mM
[5] = tested on: Aptamer 2 (Apt2) (RNA, aptamer) UCGCGUCUAGCCCAUUGAUAGGCCCGA; assay: electrochemical impedance (EIS), Langmuir-Hill fit; conditions: 0.1 M KCl, 3 mM MgCl2; PBS, pH about 7, 1 mM [Fe(CN)6]3-/4-, 15 min incubation
[6] = tested on: Aptamer 3 (Apt3) (RNA, aptamer) UCCACGUGGUGCCAUACUCCGGCGUGG; assay: electrochemical impedance (EIS), Langmuir-Hill fit; conditions: 0.1 M KCl, 3 mM MgCl2; PBS, pH about 7, 1 mM [Fe(CN)6]3-/4-, 15 min incubation
[7] = tested on: Aptamer 4 (Apt4) (RNA, aptamer) CCUCUCAGGCUUGUACUGCCACGAGGA; assay: electrochemical impedance (EIS), Langmuir-Hill fit; conditions: 0.1 M KCl, 3 mM MgCl2; PBS, pH about 7, 1 mM [Fe(CN)6]3-/4-, 15 min incubation; decimal comma as printed
[8] = tested on: Aptamer 5 (Apt5) (RNA, aptamer) GCCCUGGGCCGCUCAUUCCCUCUGGCU; assay: electrochemical impedance (EIS), Langmuir-Hill fit; conditions: 0.1 M KCl, 3 mM MgCl2; PBS, pH about 7, 1 mM [Fe(CN)6]3-/4-, 15 min incubation
[9] = tested on: Aptamer 1 (Apt1) (RNA, aptamer) CCAUGUAAGCGCGGUACUCUUACGUGA; assay: electrochemical impedance (EIS), Langmuir-Hill fit; conditions: 0.1 M KCl, 3 mM MgCl2; PBS, pH about 7, 1 mM [Fe(CN)6]3-/4-, 15 min incubation

Compound: CNC
- binding [1]: weak
- binding [2]: weak
- binding [3]: weak

Compound: N
- binding [4]: no
- Kd [5]: 16.11 mM
- Kd [6]: 131 mM
- Kd [7]: 6,6 mM
- Kd [8]: 50 mM
- Kd [9]: 36.59 mM

Compound: CN(C)C
- binding [1]: weak
- binding [2]: weak
- binding [3]: weak
